Test results published in ChEMBL document CHEMBL4346678, “Synthesis and anti-cancer evaluation of folic acid-peptide- paclitaxel conjugates for addressing drug resistance” (Eur J Med Chem, 2019).
≈ marks a conversion by molar mass, not a printed value. Calls of active or inactive are those of the source. The rule behind the calls is not given here. Starred links: 1 amine or outer side, 2 acyl side, 3 side chain; linkers in the order of their positions; H or OH if unused. Residues, ends and D or L forms follow the SMILES beside them. *: point of attachment. X1 = CC(=O)O[C@H]1C(=O)[C@@]2(C)[C@H]([C@H](OC(=O)c3ccccc3)[C@]3(O)C[C@H](OC(=O)[C@H](OC(=O)CCCCCN4C(=O)CC(*)C4=O)[C@@H](NC(=O)c4ccccc4)c4ccccc4)C(C)=C1C3(C)C)[C@]1(OC(C)=O)CO[C@@H]1C[C@@H]2O; Pteroyl = Nc1nc2ncc(CNc3ccc(C(=O)*)cc3)nc2c(=O)[nH]1; γGlu = O=C(O)[C@H](CCC(=O)[*:2])N[*:1]

Columns and labels:
[1] = Antitumor activity against […] cells xenografted in ICR mouse assessed as reduction in tumor volume at 12 umol/kg administered once every 2 days via peritumoral route for 2 weeks measured for 22 days by caliper analysis relative to control; assay type: functional
MCF7/PTX [2] = test: Induction of apoptosis in human MCF7/PTX cells assessed as late apoptotic cells at 3 uM incubated for 12 hrs by Annexin V-FITC/propidium iodide staining based flow cytometric analysis (reference value: 0.9%); assay type: functional
MCF7/PTX [3] = test: Induction of apoptosis in human MCF7/PTX cells assessed as necrotic cells at 3 uM incubated for 12 hrs by Annexin V-FITC/propidium iodide staining based flow cytometric analysis (reference value: 2.1%); assay type: functional
MCF7/PTX [4] = test: Cytotoxicity against human MCF7/PTX cells incubated for 48 hrs by MTT assay; assay type: functional, cell-based
SK-OV-3 = test: Cytotoxicity against human SKOV3 cells incubated for 48 hrs by MTT assay; assay type: functional, cell-based; details: SK-OV-3, 48 h
K562 = test: Cytotoxicity against human K562 cells incubated for 48 hrs by MTT assay; assay type: functional, cell-based; details: K562, 48 h
A2780 = test: Cytotoxicity against human A2780 cells incubated for 48 hrs by MTT assay; assay type: functional, cell-based; details: A2780, 48 h
Tubulin (Sus scrofa) = Tubulin (Sus scrofa) (UniProt P02554+P02550); test: Induction of porcine brain tubulin polymerization at 3 uM by fluorescence analysis
MCF7/PTX [5] = test: Induction of apoptosis in human MCF7/PTX cells assessed as live cells at 3 uM incubated for 12 hrs by Annexin V-FITC/propidium iodide staining based flow cytometric analysis (reference value: 95.9%); assay type: functional
[6] = Aqueous solubility of the compound; assay type: physicochemical; details: buffer
HUVEC = test: Cytotoxicity against HUVEC incubated for 48 hrs by MTT assay; assay type: cell-based; details: Homo sapiens
MCF7/PTX [7] = test: Induction of apoptosis in human MCF7/PTX cells assessed as early apoptotic cells at 3 uM incubated for 12 hrs by Annexin V-FITC/propidium iodide staining based flow cytometric analysis (reference value: 1.1%); assay type: functional
MCF7 [8] = test: Cytotoxicity against human MCF7 cells incubated for 48 hrs by MTT assay; assay type: functional, cell-based; details: MCF7, 48 h
MCF7/PTX [9] = test: Induction of membrane disruption in human MCF7/PTX cells incubated for 12 hrs by LDH release assay; assay type: functional, cell-based
Erythrocyte = test: Hemolytic activity in Wistar rat erythrocytes incubated for 1 hr; assay type: ADME, cell-based
[10] = Drug uptake in human MCF7/PTX cells at 1 to 6 uM incubated for 2 hrs using FITC-labelled compound by flow cytometric analysis; assay type: ADME, cell-based
MCF7/PTX [11] = test: Cytotoxicity against human MCF7/PTX cells at 1 to 6 uM incubated for 48 hrs by MTT assay; assay type: functional, cell-based
MCF7/PTX [12] = test: Induction of membrane disruption in human MCF7/PTX cells at 3 uM incubated for 12 hrs by AO/EB double staining based fluorescence microscopic method; assay type: functional, cell-based
[13] = Half life in Wistar rat plasma at 500 ug/ml measured over 24 hrs at 37 degC by UPLC/MS analysis; assay type: ADME, cell-free
MCF7/PTX [14] = test: Induction of apoptosis in human MCF7/PTX cells assessed as early apoptotic cells at 3 uM incubated for 12 hrs by Annexin V-FITC/propidium iodide staining based flow cytometric analysis in presence of paclitaxel (reference value: 1.1%); assay type: functional
MCF7/PTX [15] = test: Induction of apoptosis in human MCF7/PTX cells assessed as live cells at 3 uM incubated for 12 hrs by Annexin V-FITC/propidium iodide staining based flow cytometric analysis in presence of paclitaxel (reference value: 95.9%); assay type: functional
MCF7/PTX [16] = test: Induction of apoptosis in human MCF7/PTX cells assessed as late apoptotic cells at 3 uM incubated for 12 hrs by Annexin V-FITC/propidium iodide staining based flow cytometric analysis in presence of paclitaxel (reference value: 0.9%); assay type: functional
MCF7/PTX [17] = test: Induction of apoptosis in human MCF7/PTX cells assessed as necrotic cells at 3 uM incubated for 12 hrs by Annexin V-FITC/propidium iodide staining based flow cytometric analysis in presence of paclitaxel (reference value: 2.1%); assay type: functional
MCF7/PTX [18] = test: Induction of apoptosis in human MCF7/PTX cells assessed increase in cytochrome-c expression in cytoplasm at 3 uM incubated for 2 hrs by Western blot analysis; assay type: functional, cell-based
MCF7/PTX [19] = test: Induction of membrane disruption in human MCF7/PTX cells incubated for 12 hrs by AO/EB double-staining based fluorescence microscopic method; assay type: functional, cell-based
MCF7 [20] = test: Cytotoxicity against human MCF7 cells at 1 to 6 uM incubated for 48 hrs by MTT assay; assay type: functional, cell-based
MCF7/PTX [21] = test: Induction of mitochondrial membrane potential loss in human MCF7/PTX cells at 3 uM incubated for 12 hrs by JC1 staining-based confocal microscopic method; assay type: functional, cell-based
MCF7/PTX [22] = test: Induction of apoptosis in human MCF7/PTX cells assessed as increase in cleaved caspase 3 level in cytoplasm at 3 uM incubated for 2 hrs by Western blot analysis; assay type: functional, cell-based

Chain of Tubulin (Sus scrofa) (P02550 whole entry, looked up): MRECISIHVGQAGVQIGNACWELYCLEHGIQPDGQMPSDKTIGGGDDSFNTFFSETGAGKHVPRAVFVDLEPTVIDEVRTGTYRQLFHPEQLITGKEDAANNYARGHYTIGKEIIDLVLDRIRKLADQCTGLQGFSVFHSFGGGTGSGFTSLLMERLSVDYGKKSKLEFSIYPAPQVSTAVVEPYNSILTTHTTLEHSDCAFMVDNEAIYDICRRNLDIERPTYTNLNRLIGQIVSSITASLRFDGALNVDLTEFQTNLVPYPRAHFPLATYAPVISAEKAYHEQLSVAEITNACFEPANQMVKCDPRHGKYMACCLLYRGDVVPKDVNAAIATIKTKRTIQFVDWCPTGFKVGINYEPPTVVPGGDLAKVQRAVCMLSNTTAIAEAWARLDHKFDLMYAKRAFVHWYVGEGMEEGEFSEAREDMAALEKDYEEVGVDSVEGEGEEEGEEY
Chain of Tubulin (Sus scrofa) (P02554 whole entry, looked up): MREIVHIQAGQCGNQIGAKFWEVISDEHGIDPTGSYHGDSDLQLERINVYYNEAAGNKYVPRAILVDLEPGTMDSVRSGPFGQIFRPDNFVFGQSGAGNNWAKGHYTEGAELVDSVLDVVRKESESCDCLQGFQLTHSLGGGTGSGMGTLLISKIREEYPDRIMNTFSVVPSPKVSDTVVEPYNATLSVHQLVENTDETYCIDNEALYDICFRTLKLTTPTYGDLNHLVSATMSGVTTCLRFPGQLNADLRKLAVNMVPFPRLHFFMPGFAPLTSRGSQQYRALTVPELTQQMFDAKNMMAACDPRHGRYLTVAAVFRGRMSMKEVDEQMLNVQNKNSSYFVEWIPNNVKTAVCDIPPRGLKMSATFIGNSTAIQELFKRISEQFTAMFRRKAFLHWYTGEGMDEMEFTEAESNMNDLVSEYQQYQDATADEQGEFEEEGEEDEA

Drug uptake [10]	Molecule	Activity (MCF7/PTX [2]) [%]	Activity (MCF7/PTX [3]) [%]	IC50 (MCF7/PTX [4]) [µM]	IC50 (SK-OV-3) [µM]	IC50 (K562) [µM]	IC50 (A2780) [µM]	Activity (MCF7/PTX [5]) [%]	IC50 (HUVEC) [µM]	Activity (MCF7/PTX [7]) [%]	IC50 (MCF7 [8]) [µM]	Activity (MCF7/PTX [9])	Activity (Erythrocyte)	Activity (MCF7/PTX [11])	Activity (MCF7/PTX [12])	also measured
	CC(=O)O[C@H]1C(=O)[C@@]2(C)[C@H]([C@H](OC(=O)c3ccccc3)[C@]3(O)C[C@H](OC(=O)[C@H](O)[C@@H](NC(=O)c4ccccc4)c4ccccc4)C(C)=C1C3(C)C)[C@]1(OC(C)=O)CO[C@@H]1C[C@@H]2O [PACLITAXEL]	1.5	3.9	54.8	6.29	5.8	2.85	93.2	9.39	1.3						inhibition in vivo at 12 µmol/kg [1]: 49%; Activity (Tubulin (Sus scrofa)): Active; solubility [6]: 4 µg/mL (≈ 4.68 µM)
	H-LVKRFKKFFRKLKKCVLL-NH2	2.6	4.6	15.2	14.7	13.7	13.6	91.1	40.2	1.6	12.3					
Active	CC(=O)O[C@H]1C(=O)[C@@]2(C)[C@H]([C@H](OC(=O)c3ccccc3)[C@]3(O)C[C@H](OC(=O)[C@H](OC(=O)CCCCCN4C(=O)CC(SC[C@H](NC(=O)[C@H](CCCCN)NC(=O)[C@H](CCCCN)NC(=O)[C@H](CC(C)C)NC(=O)[C@H](CCCCN)NC(=O)[C@H](CCCNC(=N)N)NC(=O)[C@H](Cc5ccccc5)NC(=O)[C@H](Cc5ccccc5)NC(=O)[C@H](CCCCN)NC(=O)[C@H](CCCCN)NC(=O)[C@H](Cc5ccccc5)NC(=O)[C@H](CCCNC(=N)N)NC(=O)[C@H](CCCCN)NC(=O)[C@@H](NC(=O)[C@@H](N)CC(C)C)C(C)C)C(=O)N[C@H](C(=O)N[C@@H](CC(C)C)C(=O)N[C@@H](CC(C)C)C(N)=O)C(C)C)C4=O)[C@@H](NC(=O)c4ccccc4)c4ccccc4)C(C)=C1C3(C)C)[C@]1(OC(C)=O)CO[C@@H]1C[C@@H]2O (stereo not given in full) (H-LVKRFKKFFRKLKKC(X1)VLL-NH2)	20.2	3.2	6.11	7.17	5.9	2.69	74.4	31.6	2.2	2.15	Dose-dependent effect	Toxic	inactive	Active	
	H-LVRRFRRFFRRLRRCVLL-NH2	9	5.7	17.1	13.6	9.49	11.5	83.5	44.5	1.7	8.61					half-life at 500 ug/ml [13]: 48 min; Activity (MCF7/PTX [14]): 1.7%; Activity (MCF7/PTX [15]): 76.7%; Activity (MCF7/PTX [16]): 15.9%; Activity (MCF7/PTX [17]): 5.8%
	CC(=O)O[C@H]1C(=O)[C@@]2(C)[C@H]([C@H](OC(=O)c3ccccc3)[C@]3(O)C[C@H](OC(=O)[C@H](OC(=O)CCCCCN4C(=O)CC(SC[C@H](NC(=O)[C@H](CCCNC(=N)N)NC(=O)[C@H](CCCNC(=N)N)NC(=O)[C@H](CC(C)C)NC(=O)[C@H](CCCNC(=N)N)NC(=O)[C@H](CCCNC(=N)N)NC(=O)[C@H](Cc5ccccc5)NC(=O)[C@H](Cc5ccccc5)NC(=O)[C@H](CCCNC(=N)N)NC(=O)[C@H](CCCNC(=N)N)NC(=O)[C@H](Cc5ccccc5)NC(=O)[C@H](CCCNC(=N)N)NC(=O)[C@H](CCCNC(=N)N)NC(=O)[C@@H](NC(=O)[C@@H](N)CC(C)C)C(C)C)C(=O)N[C@H](C(=O)N[C@@H](CC(C)C)C(=O)N[C@@H](CC(C)C)C(N)=O)C(C)C)C4=O)[C@@H](NC(=O)c4ccccc4)c4ccccc4)C(C)=C1C3(C)C)[C@]1(OC(C)=O)CO[C@@H]1C[C@@H]2O (stereo not given in full) (H-LVRRFRRFFRRLRRC(X1)VLL-NH2)	30.2	3.6	5.53	6.61	3.82	2.79	64.7	37.2	1.7	1.98	Dose-dependent effect	Toxic		Active	
Active	CC(=O)O[C@H]1C(=O)[C@@]2(C)[C@H]([C@H](OC(=O)c3ccccc3)[C@]3(O)C[C@H](OC(=O)[C@H](OC(=O)CCCCCN4C(=O)CC(SC[C@H](NC(=O)[C@H](CCCCN)NC(=O)[C@H](CCCCN)NC(=O)[C@H](CC(C)C)NC(=O)[C@H](CCCCN)NC(=O)[C@H](CCCNC(=N)N)NC(=O)[C@H](Cc5ccccc5)NC(=O)[C@H](Cc5ccccc5)NC(=O)[C@H](CCCCN)NC(=O)[C@H](CCCCN)NC(=O)[C@H](Cc5ccccc5)NC(=O)[C@H](CCCNC(=N)N)NC(=O)[C@H](CCCCN)NC(=O)[C@@H](NC(=O)[C@H](CC(C)C)NC(=O)CC[C@H](NC(=O)c5ccc(NCc6cnc7nc(N)[nH]c(=O)c7n6)cc5)C(=O)O)C(C)C)C(=O)N[C@H](C(=O)N[C@@H](CC(C)C)C(=O)N[C@@H](CC(C)C)C(N)=O)C(C)C)C4=O)[C@@H](NC(=O)c4ccccc4)c4ccccc4)C(C)=C1C3(C)C)[C@]1(OC(C)=O)CO[C@@H]1C[C@@H]2O (stereo not given in full) ({Pteroyl-γGlu}-LVKRFKKFFRKLKKC(X1)VLL-NH2)	34.6	8	4.54	5.92	5.38	1.95	56.3	48.6	1.1	1.79	Dose-dependent effect	Toxic	Active	Active	Activity (MCF7/PTX [18]): Active; Activity (MCF7/PTX [19]): Dose-dependent effect; Activity (MCF7 [20]): Active; Activity (MCF7/PTX [21]): Active; Activity (MCF7/PTX [22]): Active
